According to patent US8927570B2, “1-naphthyl-or 1-dihydroacenaphthenyl-pyrido[B]indoles and uses thereof in treating cancers” (priority 2009, dated 2015):

Assays:
[1] = system: HPAC pancreatic cancer cell line; experiment: In vitro antiproliferative activity, HPAC pancreatic cancer cell line; type: cell-based
Description: (§1) Substituted β-carboline compounds 4 to 38 were tested for antiproliferative activity against HCT116 colon cancer cells and HPAC, Mia-PaCa2 and Panc-1 pancreatic cancer cell lines. Table 1 lists the IC50 values for the substituted β-carbolines.
(§2) Substituted β-carbolines and analog compounds 39 to 57 were tested for antiproliferative activity against HPAC, Mia-PaCa2 and Panc-1 pancreatic cancer cell lines and MCF-7 and MDA-MB-468 breast cancer cell lines. Table 2 lists the IC50 values for the substituted β-carbolines and analogs thereof.

[2] = system: MDA-MB-468 breast cancer cell line; experiment: In vitro antiproliferative activity, MDA-MB-468 breast cancer cell line; type: cell-based, human; conditions: Table 2
Description: as §2

[3] = system: Mia-PaCa2 pancreatic cancer cell line; experiment: In vitro antiproliferative activity, Mia-PaCa2 pancreatic cancer cell line; type: cell-based
Description: as §1, §2

[4] = system: Panc-1 pancreatic cancer cell line; experiment: In vitro antiproliferative activity, Panc-1 pancreatic cancer cell line; type: cell-based, human
Description: as §2

[5] = system: MCF-7 breast cancer cell line; experiment: In vitro antiproliferative activity, MCF-7 breast cancer cell line; type: cell-based, human
Description: as §2

[6] = system: HCT116 colon cancer cells; experiment: In vitro antiproliferative activity, HCT116 colon cancer cells; type: cell-based; conditions: Homo sapiens, HCT-116, Table 1
Description: as §1

[7] = Homo sapiens, MIA PaCa-2, Table 1
[8] = Homo sapiens, MIA PaCa-2, Table 2

Compound | IC50 ([1]; Homo sapiens, Table 1) | IC50 [3, 7] | IC50 ([4]; Homo sapiens, Table 1) | IC50 [6] | also measured
1-(1,2-Dihydroacenaphth alen-5-yl)-6-methoxy-9H-pyrido[3,4-b]indole [Compound 47] | – | – | – | – | IC50 ([1]; Table 2): 4.79 µM; IC50 [2]: 4.47 µM; IC50 ([3]; Table 2): 2.95 µM; IC50 ([4]; Table 2): > 50 µM; IC50 ([5]; Table 2): 6.42 µM
COc1ccc2c(c1)[nH]c1c(-c3cccnc3)nccc12 [Compound 5, 1-Pyridin-3-yl-7-methoxy-9H-β-carboline] | > 50 µM | 44.8 µM | > 50 µM | – | –
COc1ccc2c(c1)[nH]c1c(-c3ccoc3)nccc12 [Compound 8, 1-Furan-3-yl-7-methoxy-9H-β-carboline] | 45.1 µM | 38.3 µM | > 50 µM | – | –
COc1ccc2c(c1)[nH]c1c(-c3nccc4ccccc34)nccc12 [Compound 12, 1-Isoquinolin-1-yl-7-methoxy-9H-β-carboline] | 34.8 µM | 49.2 µM | > 50 µM | – | –
COc1ccc2[nH]c3c(-c4cccc5nccnc45)nccc3c2c1 [Compound 13, 6-Methoxy-1-quinoxalin-5-yl-9H-β-carboline] | > 50 µM | > 50 µM | > 50 µM | 26.1 µM | –
COc1ccc2c(c1)[nH]c1c(-c3cccc4nccnc34)nccc12 [Compound 14, 7-Methoxy-1-quinoxalin-5-yl-9H-β-carboline] | > 50 µM | > 50 µM | > 50 µM | 49.6 µM | –
COc1ccc2[nH]c3c(-c4cncc5ccccc45)nccc3c2c1 [Compound 15, 1-Isoquinolin-4-yl-6-methoxy-9H-β-carboline] | 7.37 µM | 4.7 µM | 10.5 µM | 5.7 µM | –
COc1ccc2c(c1)[nH]c1c(-c3cncc4ccccc34)nccc12 [Compound 16, 1-Isoquinolin-4-yl-7-methoxy-9H-β-carboline] | 44.9 µM | 36.7 µM | > 50 µM | 33.5 µM | –
COc1ccc2[nH]c3c(-c4cnc5ccccc5c4)nccc3c2c1 [Compound 17, 6-Methoxy-1-quinolin-3-yl-9H-β-carboline] | 21.9 µM | 17 µM | 29 µM | 14.1 µM | –
COc1ccc2c(c1)[nH]c1c(-c3cnc4ccccc4c3)nccc12 [Compound 18, 7-Methoxy-1-quinolin-3-yl-9H-β-carboline] | 14.5 µM | 16.7 µM | 37.2 µM | 13.1 µM | –
COc1ccc2c(c1)[nH]c1c(-c3cccc4ccccc34)nccc12 [Compound 20, 7-Methoxy-1-naphthalen-1-yl-9H-β-carboline] | 25.5 µM | 6.61 µM | > 50 µM | 3.6 µM | –
COc1ccc2[nH]c3c(-c4cccc5ncccc45)nccc3c2c1 [Compound 21, 6-Methoxy-1-quinolin-5-yl-9H-β-carboline] | 5.83 µM | 2.58 µM | 7.52 µM | 0.9 µM | –
COc1ccc2c(c1)[nH]c1c(-c3cccc4ncccc34)nccc12 [Compound 22, 7-Methoxy-1-quinolin-5-yl-9H-β-carboline] | > 50 µM | 28.6 µM | > 50 µM | 12.8 µM | –
COc1ccc2[nH]c3c(-c4cccc5cnccc45)nccc3c2c1 [Compound 23, 1-Isoquinolin-5-yl-6-methoxy-9H-β-carboline] | 15.9 µM | 9.81 µM | 21.2 µM | 9 µM | –
COc1ccc2c(c1)[nH]c1c(-c3cccc4cnccc34)nccc12 [Compound 24, 1-Isoquinolin-5-yl-7-methoxy-9H-β-carboline] | 34.4 µM | 24.1 µM | > 50 µM | 15.1 µM | –
COc1ccc2[nH]c3c(-c4ccc5ccccc5c4)nccc3c2c1 [Compound 25, 6-Methoxy-1-naphthalen-2-yl-9H-β-carboline] | 5.57 µM | 1.36 µM | 8.4 µM | 0.67 µM | –
COc1ccc2c(c1)[nH]c1c(-c3ccc4ccccc4c3)nccc12 [Compound 26, 7-Methoxy-1-naphthalen-2-yl-9H-β-carboline] | 20.8 µM | 21.7 µM | 48 µM | 17.1 µM | –
COc1ccc2[nH]c3c(-c4c5ccccc5cc5ccccc45)nccc3c2c1 [Compound 27, 1-Anthracen-9-yl-6-methoxy-9H-β-carboline] | 6.08 µM | 2.43 µM | 10.5 µM | 2.1 µM | –

Compound | IC50 ([1]; Homo sapiens, Table 1) | IC50 [3, 7] | IC50 ([4]; Homo sapiens, Table 1) | IC50 [6] | also measured
COc1ccc2c(c1)[nH]c1c(-c3c4ccccc4cc4ccccc34)nccc12 [Compound 28, 1-Anthracen-9-yl-7-methoxy-9H-β-carboline] | 5.47 µM | 3.59 µM | 14.9 µM | 1.7 µM | –
COc1ccc2[nH]c3c(-c4cc5ccccc5c5ccccc45)nccc3c2c1 [Compound 29, 6-Methoxy-1-phenanthren-9-yl-9H-β-carboline] | 0.54 µM | 0.84 µM | 18 µM | 0.53 µM | –
COc1ccc2c(c1)[nH]c1c(-c3cc4ccccc4c4ccccc34)nccc12 [Compound 30, 7-Methoxy-1-phenanthren-9-yl-9H-β-carboline] | 5.67 µM | 1.57 µM | > 50 µM | 0.87 µM | –
COc1ccc2[nH]c3c(-c4ccccc4)nccc3c2c1 [Compound 31, 6-Methoxy-1-phenyl-9H-β-carboline] | 44.8 µM | 37.1 µM | > 50 µM | 33.5 µM | –
COc1ccc2c(c1)[nH]c1c(-c3ccccc3)nccc12 [Compound 32, 7-Methoxy-1-phenyl-9H-β-carboline] | 34.3 µM | 34.3 µM | > 50 µM | 31.4 µM | –
COc1ccc2[nH]c3c(-c4c(C)ccc5ccccc45)nccc3c2c1 [Compound 33, 6-Methoxy-1-(2-methyl-naphthalen-1-yl)-9H-β-carboline] | 9.38 µM | 2.23 µM | 19.8 µM | 1.8 µM | –
COc1ccc2c(c1)[nH]c1c(-c3c(C)ccc4ccccc34)nccc12 [Compound 34, 7-Methoxy-1-(2-methyl-naphthalen-1-yl)-9H-β-carboline] | 17.6 µM | 20.7 µM | 33.3 µM | 2.43 µM | –
COc1ccc2c(-c3nccc4c3[nH]c3ccc(OC)cc34)cccc2c1 [Compound 35, 6-Methoxy-1-(6-methoxy-naphthalen-1-yl)-9H-β-carboline] | 23.1 µM | 47.2 µM | > 50 µM | 2.22 µM | –
c1ccc(COc2ccc3[nH]c4c(-c5cccc6ccccc56)nccc4c3c2)cc1 [Compound 36, 6-Benzyloxy-1-naphthalen-1-yl-9H-β-carboline] | 0.83 µM | 0.51 µM | 0.57 µM | – | –
Cc1cccc2c1[nH]c1c(-c3cccc4ccccc34)nccc12 [Compound 37, 8-Methyl-1-naphthalen-1-yl-9H-β-carboline] | 6.39 µM | 3.54 µM | > 50 µM | 2.6 µM | –
COc1ccc2[nH]c3c(-c4ccc(-c5ccccn5)cc4)nccc3c2c1 [Compound 38, 6-Methoxy-1-(4-pyridin-2-yl-phenyl)-9H-β-carboline] | 17 µM | 48.4 µM | 47.4 µM | 3 µM | –
COc1cccc2c1[nH]c1c(-c3cccc4ccccc34)nccc12 [Compound 39, 8-methoxy-1-(naphthalen-1-yl)-9H-pyrido[3,4-b]indole] | – | – | – | – | IC50 ([1]; Homo sapiens, Table 2): 20.5 µM; IC50 ([2]; Homo sapiens): > 10 µM; IC50 [3, 8]: 31.9 µM; IC50 ([4]; Homo sapiens, Table 2): 26.5 µM; IC50 ([5]; Homo sapiens, MCF7, Table 2): > 10 µM
Oc1ccc2[nH]c3c(-c4cccc5ccccc45)nccc3c2c1 [Compound 40, 1-(naphthalen-1-yl)-9H-pyrido[3,4-b]indol-6-ol] | – | – | – | – | IC50 ([2]; Homo sapiens): 10.3 µM; IC50 ([5]; Homo sapiens, MCF7, Table 2): 34 µM
COc1ccc2[nH]c3c(-c4cccc5ccccc45)ncc(-c4ccccc4)c3c2c1 [Compound 41, 6-methoxy-1-(naphthalen-1-yl)-4-phenyl-9H-pyrido[3,4-b]indole] | – | – | – | – | IC50 ([1]; Homo sapiens, Table 2): 7.72 µM; IC50 ([2]; Homo sapiens): > 10 µM; IC50 [3, 8]: 3.63 µM; IC50 ([4]; Homo sapiens, Table 2): > 10 µM; IC50 ([5]; Homo sapiens, MCF7, Table 2): > 10 µM
CNS(=O)(=O)Cc1ccc2[nH]c3c(-c4cccc5ccccc45)nccc3c2c1 [Compound 42, N-methyl-1-(1-(naphthalen-1-yl)-9H-pyrido[3,4-b]indol-6-yl)methanesulfonamide] | – | – | – | – | IC50 ([1]; Homo sapiens, Table 2): 3.83 µM; IC50 ([2]; Homo sapiens): 1.11 µM; IC50 [3, 8]: 0.58 µM; IC50 ([4]; Homo sapiens, Table 2): 6.11 µM; IC50 ([5]; Homo sapiens, MCF7, Table 2): 2.04 µM
Cc1cccc2[nH]c3c(-c4cccc5ccccc45)nccc3c12 [Compound 43, 5-methyl-1-(naphthalen-1-yl)-9H-pyrido[3,4-b]indole] | – | – | – | – | IC50 ([1]; Homo sapiens, Table 2): 4.03 µM; IC50 ([2]; Homo sapiens): 1.41 µM; IC50 [3, 8]: 1.17 µM; IC50 ([4]; Homo sapiens, Table 2): 4.56 µM; IC50 ([5]; Homo sapiens, MCF7, Table 2): 7.83 µM
COc1ccc2[nH]c3c(-c4cccc5c(F)cccc45)nccc3c2c1 [Compound 44, 1-(5-fluoronaphthalen-1-yl)-6-methoxy-9H-pyrido[3,4-b]indole] | – | – | – | – | IC50 ([1]; Homo sapiens, Table 2): 2.37 µM; IC50 ([2]; Homo sapiens): 1.2 µM; IC50 [3, 8]: 0.33 µM; IC50 ([4]; Homo sapiens, Table 2): 2.56 µM; IC50 ([5]; Homo sapiens, MCF7, Table 2): 6.6 µM
COc1ccc2[nH]c3c(-c4cccc5c(Br)cccc45)nccc3c2c1 [Compound 45, 1-(5-bromonaphthalen-1-yl)-6-methoxy-9H-pyrido[3,4-b]indole] | – | – | – | – | IC50 ([1]; Homo sapiens, Table 2): 6.18 µM; IC50 ([2]; Homo sapiens): 1.77 µM; IC50 [3, 8]: 1.17 µM; IC50 ([4]; Homo sapiens, Table 2): 2.92 µM; IC50 ([5]; Homo sapiens, MCF7, Table 2): 6.85 µM
